Experimental data: paper PMC3527569, “Anti-Inflammatory and Vasoprotective Activity of a Retroviral-Derived Peptide, Homologous to Human Endogenous Retroviruses: Endothelial Cell Effects” (PLoS ONE, 2012)
“And” between values parts separate entries of the source, which are not always exact repeats. Equal values may be shown once. “Also recorded” adds a separate entry of the source. Where a SMILES comes first, the peptide text is derived from it. Bridges are numbered along the chain shown (N, C = ends). Roman numbers before positions name the chains, in order.

How the values were obtained:
[1] = tested on: inflammatory accumulation of monocytes/macrophages; assay: Mouse NaIO4-induced inflammatory peritonitis model; format: in vivo, mouse (CD-1); conditions: doses as high as 40 µg (10 nmol)
Protocol: Effects of test compounds on the inflammatory accumulation of monocytes/macrophages or neutrophils in vivo were determined using a mouse peritonitis model. Briefly, groups of five 6–8 week old CD-1 outbred mice (Charles River; Raleigh, NC) were injected intraperitoneally (i.p.) with 1.0 ml of a sterile inflammatory stimulus (NaIO4; 5 mM in sterile isotonic saline; Sigma; St. Louis, MO). This procedure results in a dramatic accumulation of neutrophils in the peritoneal cavity which peaks at 6–8 h post injection, followed by an accumulation of monocytes/macrophages which peaks at 48–72 h post injection. Mice were euthanized by CO2 asphyxiation at either 6 h (for neutrophils) or 48 h (for monocyte/macrophages), the peritoneal cavities lavaged with two 10-ml washes of heparinized (10 u/ml; Sigma; St. Louis, MO) HBSS containing 0.1% (w/v) BSA, the washes pooled, and total and differential cells counts determined for each pooled cell suspension. Each test material was evaluated in a group of five mice, each of which was injected subcutaneously in the thigh with 0.2 ml of test material in HBSS 24 h prior to the i.p. injection of the inflammatory stimulus.

carrageenan-induced DIC = assay: Mouse carrageenan-induced DIC model, lethality; format: in vivo, mouse (CD-1)
Protocol: (§1) Groups of 10 male CD-1 mice were injected i.p. with 0.25 ml of either vehicle (PBS) or peptide in vehicle at varying times prior to the i.p. injection of 1.0 ml of carrageenan (0.45% [w/v] in PBS; Sigma). In experiments where serum cytokine levels were determined, groups of 5 mice were euthanized at 1-, 2-, 4-, 8-, and 24-h post injection of carrageenan, blood collected by cardiac puncture into heparinized syringes, and the resultant plasma stored at −80°C until assayed by ELISA. […] At 1-, 2-, 4-, and 24-h post injection of carrageenan, five mice from each group were euthanized and heparinized blood samples collected from the heart using heparinized syringes for subsequent determinations of WBC (white blood cell) counts, RBC (red blood cell) counts, or PLT (platelet) counts.

[2] = tested on: iNOS (inducible nitric oxide synthase) mRNA; assay: RT-PCR of iNOS mRNA in HUVEC; format: cell-based, human; conditions: 50 µM peptide, 3 h, 37°C, quiescent HUVEC, RT-PCR
Protocol: (§2) Cells were cultured with various concentrations of test materials, either with or without stimulus, for varying times. The cells were collected, washed and total RNA isolated using the RNeasy Mini Kit (Qiagen; Valencia, CA). Following isolation the RNA was treated with 7 units of DNase I according to the RNase-Free DNase Set (Qiagen; Valencia, CA) protocol. Using these procedures we usually obtained ∼50 µg of total RNA/10^7 cells. cDNA was prepared from the isolated mRNAs and RT-PCR performed on the target cytokines/chemokines/growth factors using appropriate primer pairs and a control primer pair for β-actin (all from R & D Systems; Minneapolis, MN). RT-PCR was generally performed for 30 cycles for β-actin and 35–45 cycles for iNOS and VEGF.

[3] = reason why binding studies were performed at 37°C
dermal vascular leak = assay: Reverse passive Arthus reaction, dermal vascular leak; format: in vivo, guinea pig (Hartley)
Protocol: Eighteen hours later both flanks of the animals were shaved and 6.25 or 12.5 µl of rabbit anti-BSA antiserum was injected intradermally (i.d.) at two sites, one on each flank. The animals were then injected i.v. with 1 ml of PBS containing BSA (1 mg/ml) and Evans Blue dye (2 mg/ml; Sigma; St. Louis, MO). Six hours later the animals were euthanized, the skin removed, and the level of induration determined as the diameter (mm) of the extravasation for each site measured on the ventral surface of the skin.

HUVEC = assay: TNF-α-induced necrosis in HUVEC (Cell Death Detection ELISA, supernatant); format: cell-based, human; conditions: HUVEC pretreated 3 h with 6.25-50 µM peptide, TNF-α 100 ng/ml, overnight
Protocol: Apoptosis was measured in HUVEC using the Cell Death Detection ELISA^PLUS kit (Roche Diagnostics; Indianapolis, IN) according to the manufacturer's instructions. This assay is based on a quantitative sandwich-enzyme-immunoassay using mouse monoclonal antibodies directed against both DNA and histones, respectively. It allows the specific determination of mono- and oligonucleosomes in the cytoplasmic fraction of cell lysates (apoptosis) and in the supernatant of dying cells (necrosis). The apoptotic index (AI) was calculated as
where treatment refers to use of a known apoptosis- or necrosis-inducing agent (staurosporine, TNF-α).

IL-6 = assay: Plasma IL-6 in mouse carrageenan DIC model (ELISA); format: in vivo, mouse (CD-1); conditions: 1 mg (245 nmol) i.p. 18 h before carrageenan, peak at 4 h
Protocol: as §1
(§3) Cytokine measurements of serum samples from MN10021-treated mice were performed by sandwich ELISA assays (R & D systems) according to the manufacturer’s instructions for use of its kits with sera samples.

paw inflammation = assay: Carrageenan-induced paw inflammation in mice; format: in vivo, mouse; conditions: compared with peritonitis model; data not shown
TNF-α = assay: Plasma TNF-α in mouse carrageenan DIC model (ELISA); format: in vivo, mouse (CD-1); conditions: 1 mg (245 nmol) i.p. 18 h before carrageenan, over 24 h, groups of 5 mice
Protocol: as §1, §3

[4] = tested on: blood leukocyte and platelet counts; assay: Blood cell counts (WBC, PLT) in mouse carrageenan DIC model; format: in vivo, mouse (CD-1); conditions: 245 nmol i.p. 18 h before carrageenan
Protocol: as §1

dengue virus = assay: Vascular leak in liver of mice injected with dengue virus; set-up: species or system mouse; conditions: 1 µg intraperitoneal; dengue virus i.v.; preliminary in vivo studies
[5] = mice; data not shown
[6] = tested on: endothelial nitric oxide synthase (eNOS) mRNA; assay: RT-PCR of eNOS mRNA in HUVEC; format: cell-based, human; conditions: data not shown
Protocol: as §2

Row | Compound | anti-inflammatory activity in peritonitis model [1] | protection in lethal model of carrageenan-induced DIC (carrageenan-induced DIC; 73 nmol) | mice protected from lethal carrageenan (carrageenan-induced DIC; 30 µg (7 nmol) i.p. 18 h prior to carrageenan, groups of 10 CD-1 mice) | survival time after carrageenan (carrageenan-induced DIC; 1 mg (245 nmol) i.p. before i.p. carrageenan, 120 h longest time observed) | induction of mRNA for iNOS in HUVEC [2] | solubility at lower temperatures [3] | block of vascular leak, challenge 6.25 µl anti-BSA (dermal vascular leak; 250 or 500 µg s.c. 18 h before challenge, Evans Blue extravasation diameter at 6 h) | block of vascular leak, challenge 12.5 µl anti-BSA (dermal vascular leak; only the highest dose (500 µg) s.c. 18 h before challenge, Evans Blue extravasation at 6 h) | protection against TNF-α-induced necrosis (HUVEC) | block of peak plasma IL-6 response (IL-6) | activity in carrageenan-induced paw inflammation (paw inflammation) | block of carrageenan-induced increase in plasma TNF-α (TNF-α) | effect on carrageenan-induced leukocytosis (WBC) [4] | PLT count of treated mice, percent of normal ([4]; over the 24 h period) | effect on vascular leak in the liver of dengue virus-injected mice (dengue virus) | time to detection in the blood after s.c. injection [5] | effect on expression of mRNA for eNOS [6]
1 | H-LGGEKLFLLDGRNQLC-OH (disulfide (positions not given here)) [MN20050] | no anti-inflammatory activity | – | – | – | – | – | – | – | – | – | – | – | – | – | – | – | –
2 | CC(C)C[C@H](NC(=O)CNC(=O)CNC(=O)[C@H](CCC(=O)O)NC(=O)[C@H](CCCCN)NC(=O)[C@H](CC(C)C)NC(=O)[C@H](Cc1ccccc1)NC(=O)[C@H](CC(C)C)NC(=O)[C@H](CC(C)C)NC(=O)[C@H](CC(=O)O)NC(=O)[C@H](CC(C)C)NC(=O)CNC(=O)[C@H](CCCNC(=N)N)NC(=O)[C@H](CCCNC(=N)N)NC(=O)[C@H](CC(N)=O)NC(=O)[C@H](CCC(N)=O)NC(=O)[C@@H](N)CC(C)C)C(=O)N[C@@H](CSSC[C@H](NC(=O)[C@H](CC(C)C)NC(=O)CNC(=O)CNC(=O)[C@H](CCC(=O)O)NC(=O)[C@H](CCCCN)NC(=O)[C@H](CC(C)C)NC(=O)[C@H](Cc1ccccc1)NC(=O)[C@H](CC(C)C)NC(=O)[C@H](CC(C)C)NC(=O)[C@H](CC(=O)O)NC(=O)[C@H](CC(C)C)NC(=O)CNC(=O)[C@H](CCCNC(=N)N)NC(=O)[C@H](CCCNC(=N)N)NC(=O)[C@H](CC(N)=O)NC(=O)[C@H](CCC(N)=O)NC(=O)[C@@H](N)CC(C)C)C(=O)O)C(=O)O [MN10021] (I: H-LQNRRGLDLLFLKEGGLC-OH / II: H-LQNRRGLDLLFLKEGGLC-OH; disulfide I:18-II:18) | – | completely protects | approximately 50% | at least 120 h | induces mRNA for iNOS | insolubility | completely blocked | completely blocked | significant protection; also recorded: block almost completely | about 50% | equally active | ~85% and > 80% | prevented much of the leukocytosis | approximately 50% | inhibit the vascular leak | ≤ 15 min | Neither MN10021 nor DUK0005 affected
